In this experiment the target is T1, JAK2 (JH1domain-catalytic, Y1007F,Y1008F) kinase (Homo sapiens, UniProt O60674, Y1007F/Y1008F).
T1 construct: JAK2 (JH1domain-catalytic, Y1007F,Y1008F) kinase was expressed as N-terminal fusion; made in house; host or cells: transiently transfected HEK293 cells
Description: JAK2 JH1 Domain Binding Assay. The following applies: qPCR readout.

T1 sequence (O60674 849-1124 Y1007F/Y1008F limits assumed): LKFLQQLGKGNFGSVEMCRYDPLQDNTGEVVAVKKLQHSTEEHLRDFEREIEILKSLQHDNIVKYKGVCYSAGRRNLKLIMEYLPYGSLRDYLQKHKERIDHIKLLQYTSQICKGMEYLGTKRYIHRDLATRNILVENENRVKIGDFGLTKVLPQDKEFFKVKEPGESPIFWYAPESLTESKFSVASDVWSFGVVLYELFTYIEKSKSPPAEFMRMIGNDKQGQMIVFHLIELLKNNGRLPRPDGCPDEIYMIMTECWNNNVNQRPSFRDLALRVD

Regarding `CNc1nccn2ncc(Oc3cnc4nc(Nc5cc(C(F)(F)F)cn(-c6cnn(C)c6)c5=O)n(C)c4c3Cl)c12` [Example I-171, 3-((7-chloro-1-methyl-6-((4-(methylamino)pyrazolo[1,5-a]pyrazin-3-yl)oxy)-1H-imidazo[4,5-b]pyridin-2-yl)amino)-1-(1-methyl-1H-pyrazol-4-yl)-5-(trifluoromethyl)pyridin-2(1H)-one], the Kd (in general, the concentration at which binding is half-saturated) is less than 10 nM.
`Cn1c(Nc2cc(C(C)(C)C)n([C@H]3COC[C@@H]3O)n2)nc2ncc(Oc3cnn4ccnc4c3)c(Cl)c21` (single isomer, unassigned) [Example I-23] yielded a Kd of 10 to 50 nM.
Then `Cn1c(Nc2cc(C(F)(F)F)cn([C@H]3CCCOC3)c2=O)nc2ncc(Oc3cnn4ccncc34)c(Cl)c21` (single isomer, unassigned) [Example I-107-b], with less than 10 nM; and `CN1CCCCC1COc1cc(Nc2nc3ncc(Oc4cnn5ccncc45)c(Cl)c3n2C)cc(C(F)(F)F)c1` (single isomer, unassigned) [Example I-350-a], with less than 10 nM; and `CC(=O)N1CC(n2nc(Nc3nc4ncc(Oc5cnn6ccncc56)c(Cl)c4n3C)cc2C(C)(C)C)C1` [Example I-94, 1-(3-(5-(tert-butyl)-3-((7-chloro-1-methyl-6-(pyrazolo[1,5-a]pyrazin-3-yloxy)-1H-imidazo[4,5-b]pyridin-2-yl)amino)-1H-pyrazol-1-yl)azetidin-1-yl)ethan-1-one], with less than 10 nM.
Then `Cn1c(Nc2cc(C(C)(C)C)n([C@@H]3COC[C@H]3O)n2)nc2ncc(Oc3cnn4ccnc4c3)c(Cl)c21` (single isomer, unassigned) [Example I-24], with 50 to 1000 nM; and `CNc1nccn2ncc(Oc3cnc4nc(Nc5ccc(CN6CC(C#N)C6)c(C(F)(F)F)c5)n(C)c4c3Cl)c12` [Example I-216, 1-(4-((7-chloro-1-methyl-6-((4-(methylamino)pyrazolo[1,5-a]pyrazin-3-yl)oxy)-1H-imidazo[4,5-b]pyridin-2-yl)amino)-2-(trifluoromethyl)benzyl)azetidine-3-carbonitrile], with 10 to 50 nM; and `COCc1c[nH]c2ncc(Oc3cnc4nc(Nc5cc(C(C)(C)C)n([C@@H]6CCOC6)n5)n(C)c4c3)cc12` [Example I-11], with less than 10 nM.
In the case of `CNc1nccn2ncc(Oc3cnc4nc(Nc5ccc(CN6CC[C@H](OC)C6)c(C(F)(F)F)c5)n(C)c4c3Cl)c12` [Example I-191, (S)-7-chloro-N-(4-((3-methoxypyrrolidin-1-yl)methyl)-3-(trifluoromethyl)phenyl)-1-methyl-6-((4-(methylamino)pyrazolo[1,5-a]pyrazin-3-yl)oxy)-1H-imidazo[4,5-b]pyridin-2-amine] it was 10 to 50 nM; in that of `CNc1ccc2c(Oc3cnc4nc(Nc5cc(C(F)(F)F)cn(C)c5=O)n(C)c4c3Cl)cnn2c1` [Example I-303, 3-((7-chloro-1-methyl-6-((6-(methylamino)pyrazolo[1,5-a]pyridin-3-yl)oxy)-1H-imidazo[4,5-b]pyridin-2-yl)amino)-1-methyl-5-(trifluoromethyl)pyridin-2(1H)-one], less than 10 nM.
Take `Cn1c(Nc2cc(C(C)(C)C)n(C3COC3)n2)nc2ncc(Oc3cnn4ccncc34)c(C#N)c21` [Example I-168, 2-((5-(tert-butyl)-1-(oxetan-3-yl)-1H-pyrazol-3-yl)amino)-1-methyl-6-(pyrazolo[1,5-a]pyrazin-3-yloxy)-1H-imidazo[4,5-b]pyridine-7-carbonitrile]: the Kd is 10 to 50 nM.
In the case of `Cn1c(Nc2cc(C3CC3)cn(CCCN3CCOCC3)c2=O)nc2ncc(Oc3cnn4ccncc34)c(Cl)c21` [Example I-97, 3-((7-chloro-1-methyl-6-(pyrazolo[1,5-a]pyrazin-3-yloxy)-1H-imidazo[4,5-b]pyridin-2-yl)amino)-5-cyclopropyl-1-(3-morpholinopropyl)pyridin-2(1H)-one] it was less than 10 nM; in that of `Cn1c(Nc2cc(CN3CC(O)C3)cc(C(F)(F)F)c2)nc2ncc(Oc3cnn4ccncc34)c(Cl)c21` [Example I-258, 1-(3-((7-chloro-1-methyl-6-(pyrazolo[1,5-a]pyrazin-3-yloxy)-1H-imidazo[4,5-b]pyridin-2-yl)amino)-5-(trifluoromethyl)benzyl)azetidin-3-ol], less than 10 nM; in that of `Cn1cc(C2CC2)cc(Nc2nc3ncc(Oc4cnn5ccnc(O[C@H]6CC[C@@H]6O)c45)c(Cl)c3n2C)c1=O` (single isomer, unassigned) [Example I-133-b], less than 10 nM.
The compound `CN1CC(Oc2cc(Nc3nc4ncc(Oc5cnn6ccncc56)c(Cl)c4n3C)cc(C(F)(F)F)c2)C1` [Example I-218, 7-chloro-1-methyl-N-(3-((1-methylazetidin-3-yl)oxy)-5-(trifluoromethyl)phenyl)-6-(pyrazolo[1,5-a]pyrazin-3-yloxy)-1H-imidazo[4,5-b]pyridin-2-amine] registered a Kd of less than 10 nM.
In the case of `CC(O)Cn1nc(Nc2nc3ncc(Oc4cnn5ccncc45)c(Cl)c3n2C)cc1C(C)(C)C` (single isomer, unassigned) [Example I-37] it was less than 10 nM; in that of `COc1c(Oc2cnn3ccncc23)cnc2nc(Nc3cc(C4CC4)cn([C@@H]4CC[C@H]4O)c3=O)n(C)c12` (single isomer, unassigned) [Example I-110-b], 10 to 50 nM.
Compound `CNc1nccn2ncc(Oc3cnc4nc(Nc5ccc(CN6CC[C@@H](OC)C6)c(C(F)(F)F)c5)n(C)c4c3Cl)c12` [Example I-192] showed a Kd of 10 to 50 nM.
Then `CN1CC[C@@H](n2nc(Nc3nc4ncc(Oc5cnn6ccncc56)c(Cl)c4n3C)cc2C(C)(C)C)C1` [Example I-32, (R)—N-(5-(tert-butyl)-1-(1-methylpyrrolidin-3-yl)-1H-pyrazol-3-yl)-7-chloro-1-methyl-6-(pyrazolo[1,5-a]pyrazin-3-yloxy)-1H-imidazo[4,5-b]pyridin-2-amine], with less than 10 nM.
`CNc1cn2ncc(Oc3cnc4nc(Nc5cc(C(F)(F)F)cn(C)c5=O)n(C)c4c3C#N)c2c(C)n1` [Example I-396, 1-methyl-2-((1-methyl-2-oxo-5-(trifluoromethyl)-1,2-dihydropyridin-3-yl)amino)-6-((4-methyl-6-(methylamino)pyrazolo[1,5-a]pyrazin-3-yl)oxy)-1H-imidazo[4,5-b]pyridine-7-carbonitrile] yielded a Kd of 10 to 50 nM.
In the case of `Cn1cc(C(F)(F)F)cc(Nc2nc3ncc(Oc4cnc5[nH]nc(C6CC6)c5c4)c(C#N)c3n2C)c1=O` [Example I-337, 6-((3-cyclopropyl-1H-pyrazolo[3,4-b]pyridin-5-yl)oxy)-1-methyl-2-((1-methyl-2-oxo-5-(trifluoromethyl)-1,2-dihydropyridin-3-yl)amino)-1H-imidazo[4,5-b]pyridine-7-carbonitrile] it was less than 10 nM; in that of `Cn1c(Nc2cc(C(=O)NCCN3CCOCC3)cc(C(F)(F)F)c2)nc2ncc(Oc3cnn4ccccc34)c(Cl)c21` [Example I-145, 3-((7-chloro-1-methyl-6-(pyrazolo[1,5-a]pyridin-3-yloxy)-1H-imidazo[4,5-b]pyridin-2-yl)amino)-N-(2-morpholinoethyl)-5-(trifluoromethyl)benzamide], 10 to 50 nM.
`Cn1c(Nc2cc(C(F)(F)F)n(C3CC4(CCOCC4)C3)n2)nc2ncc(Oc3cnc4[nH]ncc4c3)c(C#N)c21` [Example I-400, 6-((1H-pyrazolo[3,4-b]pyridin-5-yl)oxy)-2-((1-(7-oxaspiro[3.5]nonan-2-yl)-5-(trifluoromethyl)-1H-pyrazol-3-yl)amino)-1-methyl-1H-imidazo[4,5-b]pyridine-7-carbonitrile]: the Kd is less than 10 nM.
Then `Cn1cc(C2CC2)cc(Nc2nc3ncc(Oc4cnn5ccncc45)c(C(F)F)c3n2C)c1=O` [Example I-59, 5-cyclopropyl-3-((7-(difluoromethyl)-1-methyl-6-(pyrazolo[1,5-a]pyrazin-3-yloxy)-1H-imidazo[4,5-b]pyridin-2-yl)amino)-1-methylpyridin-2(1H)-one], with less than 10 nM.
`CNc1nccn2ncc(Oc3cnc4nc(Nc5ccc(CN6CC(F)C6)c(C(F)(F)F)c5)n(C)c4c3Cl)c12` [Example I-189, 7-chloro-N-(4-((3-fluoroazetidin-1-yl)methyl)-3-(trifluoromethyl)phenyl)-1-methyl-6-((4-(methylamino)pyrazolo[1,5-a]pyrazin-3-yl)oxy)-1H-imidazo[4,5-b]pyridin-2-amine] returned a Kd of 10 to 50 nM.
Then `Cn1c(Nc2cc(C(F)(F)F)n(C3CC4(COC4)C3)n2)nc2ncc(Oc3cnc4[nH]ncc4c3)c(C#N)c21` [Example I-330, 6-((1H-pyrazolo[3,4-b]pyridin-5-yl)oxy)-2-((1-(2-oxaspiro[3.3]heptan-6-yl)-5-(trifluoromethyl)-1H-pyrazol-3-yl)amino)-1-methyl-1H-imidazo[4,5-b]pyridine-7-carbonitrile], with less than 10 nM; and `COc1c(Oc2cnn3ccncc23)cnc2nc(Nc3cc(C4CC4)cn([C@H]4CC[C@H]4O)c3=O)n(C)c12` (single isomer, unassigned) [Example I-104-b], with less than 10 nM; and `CNc1nccn2ncc(Oc3cnc4nc(Nc5cc(C(F)(F)F)c[nH]c5=O)n(C)c4c3Cl)c12` [Example I-223, 3-((7-chloro-1-methyl-6-((4-(methylamino)pyrazolo[1,5-a]pyrazin-3-yl)oxy)-1H-imidazo[4,5-b]pyridin-2-yl)amino)-5-(trifluoromethyl)pyridin-2(1H)-one], with less than 10 nM.
Then `CNc1cn2ncc(Oc3cnc4nc(Nc5ccc(CN6CC[C@@H](OC)C6)c(C(F)(F)F)c5)n(C)c4c3Cl)c2cn1` [Example I-361, (R)-7-chloro-N-(4-((3-methoxypyrrolidin-1-yl)methyl)-3-(trifluoromethyl)phenyl)-1-methyl-6-((6-(methylamino)pyrazolo[1,5-a]pyrazin-3-yl)oxy)-1H-imidazo[4,5-b]pyridin-2-amine], with 50 to 1000 nM.
Then `Cn1c(Nc2cc(C(F)(F)C(F)(F)F)n([C@@H]3CCOC3)n2)nc2ncc(Oc3cnc4ccnn4c3)c(Cl)c21` [Example I-7, (R)-7-chloro-1-methyl-N-(5-(perfluoroethyl)-1-(tetrahydrofuran-3-yl)-1H-pyrazol-3-yl)-6-(pyrazolo[1,5-a]pyrimidin-6-yloxy)-1H-imidazo[4,5-b]pyridin-2-amine], with 10 to 50 nM.

Values taken from patent US12043632B2, “6-heteroaryloxy benzimidazoles and azabenzimidazoles as JAK2 inhibitors” (Ajax Therapeutics, Inc., priority 2020, dated 2024).
